Laboratory results as given in article PMC7024204, “Synthesis, Crystal Structure, and Biological Activity of a Multidentate Calix[4]arene Ligand Doubly Functionalized by 2-Hydroxybenzeledene-Thiosemicarbazone” (Molecules, 2020).
In brackets after ≈: the same amount, converted by molar mass. Like-named read-outs stand apart in the source and are kept apart here.

Key:
MG-63 cell line = experiment: MTT cytotoxicity assay; type: cell-based, human; settings: for IC50: Homo sapiens, MG-63, MTT, 48 h, read-out: In vitro cytotoxic activity IC50; for anti-cancer effect: MG-63, especially at 2.5–20 μg/mL
Protocol: (§1) The colorimetric MTT assay, introduced by Mossmann, was used for the evaluation of the anti-cancer activity of our synthesized compounds against Saos-2 and MG-63 cell lines (human bone cancer cells). These cells were obtained from the Pasteur Institute of Iran, Tehran, Iran and maintained in RPMI 1640 medium supplemented with 10% FBS and 1% benzylpenicillin/streptomycin. […] The cells without treatment were considered as the control. After 48 h, the medium was removed and replaced with 200 μL of fresh medium containing 100 μg mL^−1 MTT powder and incubated for a further 4 h. The medium was then withdrawn and 100 μL of DMSO was added to dissolve the formazan crystals inside the cells. The absorbance of solubilized formazan was detected at 570 nm with the reference wavelength of 630 nm using an ELISA plate reader (Stat Fax, 2100, Awareness Technology Inc., Palm City, FL, USA). The viability of cells in each well was calculated by the following formula:(1) viability of cells (%)=mean absorbance of sample/mean absorbance of control×100.

Saos-2 cell line [1] = experiment: MTT cytotoxicity assay; type: cell-based, human; settings: for IC50: Homo sapiens, Saos-2, MTT, 48 h, read-out: In vitro cytotoxic activity IC50; for anti-cancer effect: Saos-2, especially at 2.5–20 μg/mL
Protocol: as §1

B. subtilis (ATCC 6633) = experiment: Broth microdilution (serial double dilution) MIC/MBC; type: cell-based; settings: Bacillus subtilis; for MIC: ATCC6633, 24 h, 37 °C, micro-broth dilution
Protocol: (§2) S. aureus (ATCC® 29213™), B. subtilis (ATCC® 6633™), E. coli (ATCC® 25922™), P. aeruginosa (ATCC® 27853™), C. albicans (ATCC® 10231™), and C. glabrata (ATCC® 2001™) were cultured onto sterile Mueller-Hinton agar plates, and incubated at 37 °C for 24 h. After incubation, a single colony was selected to inoculate a sterile tube containing 2 mL of sterile normal saline to match the turbidity of a 0.5 McFarland standard (10^8 cfu/mL). Further dilution was done with sterile normal saline to 10^5 cfu/mL before incubation.
(§3) Serial dilution of the synthesized compounds suspension in DMSO (2000–15.62 μg/mL) was done in a sterile 96-well plate. Then, 20 μL of an overnight bacterial and fungal suspension and 180 μL of the compounds suspension in MHB (and 1% glucose for fungal strains) were mixed in each well. The final concentration of DMSO was 10%. After 24 h of incubation at 37 °C, the first concentration with no bacterial growth is regarded as the minimum inhibitory concentration (MIC). Controls (microorganism strain in MHB without chemical and MHB alone) were included in each measurement. Aliquots of 5 μL from wells in which no growth was observed were spotted onto Mueller–Hinton agar plates to determine the minimum bactericidal concentration (MBC) values. The MBC was read as the lowest concentration with no growth after 24 h of incubation.

S. aureus (ATCC 29213) = experiment: as above; type: cell-based; settings: Staphylococcus aureus
Protocol: as §2, §3

E. coli (ATCC 25922) = experiment: as above; type: cell-based, Escherichia coli; settings: for MIC / MBC: Escherichia coli; for MIC: ATCC25922, 24 h, 37 °C, micro-broth dilution; for MBC: ATCC25922, micro-broth dilution
Protocol: as §2, §3

[2] = system: P. aeruginosa (ATCC 27853); experiment: as above; type: cell-based, Pseudomonas aeruginosa; settings: for MIC: ATCC27853, 24 h, 37 °C, micro-broth dilution
Protocol: as §2, §3

C. albicans (ATCC 10231) [3] = experiment: as above; type: cell-based, Candida albicans; settings: for MIC: 37 °C, micro-broth dilution
Protocol: as §2, §3

Saos-2 cells = experiment: DAPI staining, morphology of cell nuclei; type: cell-based, human; settings: Saos-2, 48 h exposure at IC50
Protocol: To visually study the apoptotic effects of the synthesized compounds (L and its Co, Ni, Cu, and Zn complexes), the 4′,6-diamidino-2-phenylindole (DAPI) staining assay was performed according to the literature procedure. Briefly, Saos-2 cells were seeded in six-well plates (5 × 10^4 cells per well) and incubated at 37 °C for 24 h. After the growth of the cells, the culture media were replaced by fresh media containing L and its metal derivatives (sterile filtered through 500 nm) at their half-maximal inhibitory growth concentration (IC50). Cells receiving no treatment were considered as the control group. After 48 h, the cells were washed three times with fresh PBS (pH 7.4) to remove any chemical compounds. Subsequently, the cells were fixed with 4 wt% paraformaldehyde for 15 min at room temperature. Afterwards, the cells were washed three times with PBS and permeabilized with Triton X-100 (0.1% w/v) for 5 min. The cells were washed again with PBS and stained with 300 ng mL^−1 DAPI for 15 min. DNA condensation and fragmentation in apoptotic cells were evaluated under a fluorescence microscope.

C. glabrata (ATCC 2001) = experiment: Broth microdilution (serial double dilution) MIC/MBC; type: cell-based, Candida glabrata; settings: 24 h, 37 °C, micro-broth dilution
Protocol: as §2, §3

C. albicans (ATCC 10231) [4] = system: C. albicans (ATCC 10231); set-up: method as in PMID 31649917; settings: cited from earlier work
Saos-2 cell line [5] = system: Saos-2 cell line; set-up: method as in PMID 31649917; settings: Saos-2, thiosemicarbazide ligand and metal derivatives; cited from earlier work

Compound: COc1cccc2c1C(=O)c1c(O)c3c(c(O)c1C2=O)C[C@@](O)(C(=O)CO)C[C@@H]3O[C@H]1C[C@H](N)[C@H](O)[C@H](C)O1 [DOX, doxorubicin]
- IC50 (MG-63 cell line): 10.1 µg/mL (≈ 18.6 µM)
- anti-cancer effect (MG-63 cell line): strong anti-cancer effects
- IC50 (Saos-2 cell line [1]): 2.1 µg/mL (≈ 3.86 µM)
- anti-cancer effect (Saos-2 cell line [1]): strong anti-cancer effects

Compound: CNC(C)C1CCC(N)C(OC2C(N)CC(N)C(OC3OCC(C)(O)C(NC)C3O)C2O)O1 (stereo not shown) [Gentamicin]
- MIC (B. subtilis (ATCC 6633)): 2 µg/mL (≈ 4.19 µM)
- MBC (B. subtilis (ATCC 6633); ATCC6633, micro-broth dilution): 2 µg/mL (≈ 4.19 µM)
- MIC (S. aureus (ATCC 29213); ATCC29213, 24 h, 37 °C, micro-broth dilution): 0.12 µg/mL (≈ 0.251 µM)
- MBC (S. aureus (ATCC 29213); ATCC29213, micro-broth dilution): 0.25 µg/mL (≈ 0.523 µM)
- MIC (E. coli (ATCC 25922)): 0.5 µg/mL (≈ 1.05 µM)
- MBC (E. coli (ATCC 25922)): 0.5 µg/mL (≈ 1.05 µM)
- MIC ([2]; Pseudomonas aeruginosa): 2 µg/mL (≈ 4.19 µM)
- MBC ([2]; Pseudomonas aeruginosa, ATCC27853, micro-broth dilution): 2 µg/mL (≈ 4.19 µM)

Compound: CC(C)(C)c1cc2c(O)c(c1)Cc1cc(C(C)(C)C)cc(c1OCCNC(=S)NN=Cc1ccccc1O)Cc1cc(C(C)(C)C)cc(c1O)Cc1cc(C(C)(C)C)cc(c1OCCNC(=S)NN=Cc1ccccc1O)C2 [Ligand L, 5, 11, 17, 23-tetra-tert-butyl-26, 28-dihydroxy-25, 27-bis(2(2-hydroxybenzeledene)thiosemicarbazonoethoxy) calix[4]arene]
- MIC (B. subtilis (ATCC 6633)): 31.2 µg/mL (≈ 28.6 µM)
- improvement of MIC in comparison with thiosemicarbazide equivalent (E. coli (ATCC 25922)): 8 fold
- MIC (E. coli (ATCC 25922)): 31.2 µg/mL (≈ 28.6 µM)
- MBC (E. coli (ATCC 25922)): 31.2 µg/mL (≈ 28.6 µM)
- improvement of MIC in comparison with thiosemicarbazide equivalent [2]: 2 fold
- MIC ([2]; Pseudomonas aeruginosa): 31.2 µg/mL (≈ 28.6 µM)
- antifungal activity (C. albicans (ATCC 10231) [3]): strong
- MIC (C. albicans (ATCC 10231) [3]; Candida albicans, ATCC10231, 24 h, read-out: MIC): 31.2 µg/mL (≈ 28.6 µM)
- MBC (C. albicans (ATCC 10231) [3]; Candida albicans, ATCC10231, micro-broth dilution): 125 µg/mL (≈ 115 µM)
- antifungal activity (C. albicans (ATCC 10231) [3]; listed as thiosemicarbazone schiff-base ligand): significant antifungal activity
- IC50 (MG-63 cell line): > 200 µg/mL
- IC50 (Saos-2 cell line [1]): < 25 µg/mL
- morphology of cell nuclei (DAPI-stained cells) (Saos-2 cells): deformed and fragmented nuclei
- melting point: 230 °C (dec.)

Compound: CN(Cc1cnc2nc(N)nc(N)c2n1)c1ccc(C(=O)N[C@@H](CCC(=O)O)C(=O)O)cc1 [MTX, Methotrexate]
- IC50 (MG-63 cell line): 14.5 µg/mL (≈ 31.9 µM)
- anti-cancer effect (MG-63 cell line): strong anti-cancer effects
- IC50 (Saos-2 cell line [1]): 7.9 µg/mL (≈ 17.4 µM)
- anti-cancer effect (Saos-2 cell line [1]): strong anti-cancer effects

Compound: C[C@@H]1[C@H](O)[C@@H](C)/C=C/C=C/CC/C=C/C=C/C=C/C=C/C(O[C@H]2O[C@H](C)[C@@H](O)[C@H](N)[C@@H]2O)CC2O[C@](O)(CC(O)C(O)CCC(O)CC(O)CC(O)CC(=O)O[C@H]1C)CC(O)C2C(=O)O (stereo partly shown) [Nystatin]
- MIC (C. albicans (ATCC 10231) [3]; 24 h): 1.25 µg/mL (≈ 1.35 µM)
- MIC (C. glabrata (ATCC 2001)): 0.625 µg/mL (≈ 0.675 µM)

Compound: Bisthiosemicarbazide-substituted p-tert-butylcalix[4]arene [thiosemicarbazide ligand]
- antifungal activity (C. albicans (ATCC 10231) [4]): resistant
- IC50 (Saos-2 cell line [5]): > 200 µg/mL
